Here are results for 29 compounds from patent US20240109853A1 (Shanghai Yao Yuan Biotechnology Co., Ltd., priority 2020, published 2024).

In experiment [1] the test system is ALPK1-dependent NFκB reporter gene activation in HEK293 cells stably expressing an NF-kB reporter (G9 cells). As to the kind of experiment: NFκB gene reporter alkaline phosphatase assay. In kind it is cell-based. Particulars: Homo sapiens, HEK293; read-out: NFkB assay IC50. From the text: In embodiments, a compound of Formula I, or a subembodiment described herein, is an inhibitor of ALPK1 as measured, for example, in an in vitro kinase assay, or an assay designed to measure the activation of downstream targets of ALPK1 pathway activation, for example NFkB transcriptional activation and the secretion of proinflammatory cytokines and chemokines, such as IL-8, which is also referred to as CXCL-8. In general, the computer program XL fit was used for data analysis, including non-linear regression analysis. The half maximal inhibitory concentration (IC50) was used as the measure of a compound's effectiveness in the assays. IC50 values were determined using the following logistic equation Y=min+(max−min)/(1+(X/IC50^−hillslpoe), where Y is the value at the compound concentration, X. The concentration response curve fitting was conducted using GraphPad Prism version 6.00 software.
An alkaline phosphatase reporter assay system was used to measure inhibition of ALPK1-dependent NFκB reporter gene activation. Briefly, HEK293 cells stably expressing an NF-kB reporter (referred to herein as “G9 cells”) were maintained in DMEM as described above. For the assay, cells were seeded into 96-well plates at a density of 10,000 cells/well in Freestyle™ 293 Expression Medium (ThermoFisher), and allowed to attach overnight. Cells were pretreated with serially diluted compounds for 30 min and then stimulated with D-glycero-D-manno-6-fluoro-heptose-1β-S-ADP. […] NFkB gene activation was detected using the chromogenic substrate, para-nitrophenyl phosphate (pNPP) according to the manufacturer's protocols (pNPP Phosphatase Assay, Beyotime Biotechnology).

For another experiment, the target named is ALPK1 (Homo sapiens (Human), UniProt Q96QP1). As to the kind of experiment: ALPK1 in vitro kinase assay (HTRF of TIFA phosphorylation). In kind it is biochemical. Background: Time-resolved FRET reads energy transfer from a long-lived donor to a nearby acceptor.

Where a name gives a salt, the structure may show the parent alone.

Chain of ALPK1 (Q96QP1 whole entry): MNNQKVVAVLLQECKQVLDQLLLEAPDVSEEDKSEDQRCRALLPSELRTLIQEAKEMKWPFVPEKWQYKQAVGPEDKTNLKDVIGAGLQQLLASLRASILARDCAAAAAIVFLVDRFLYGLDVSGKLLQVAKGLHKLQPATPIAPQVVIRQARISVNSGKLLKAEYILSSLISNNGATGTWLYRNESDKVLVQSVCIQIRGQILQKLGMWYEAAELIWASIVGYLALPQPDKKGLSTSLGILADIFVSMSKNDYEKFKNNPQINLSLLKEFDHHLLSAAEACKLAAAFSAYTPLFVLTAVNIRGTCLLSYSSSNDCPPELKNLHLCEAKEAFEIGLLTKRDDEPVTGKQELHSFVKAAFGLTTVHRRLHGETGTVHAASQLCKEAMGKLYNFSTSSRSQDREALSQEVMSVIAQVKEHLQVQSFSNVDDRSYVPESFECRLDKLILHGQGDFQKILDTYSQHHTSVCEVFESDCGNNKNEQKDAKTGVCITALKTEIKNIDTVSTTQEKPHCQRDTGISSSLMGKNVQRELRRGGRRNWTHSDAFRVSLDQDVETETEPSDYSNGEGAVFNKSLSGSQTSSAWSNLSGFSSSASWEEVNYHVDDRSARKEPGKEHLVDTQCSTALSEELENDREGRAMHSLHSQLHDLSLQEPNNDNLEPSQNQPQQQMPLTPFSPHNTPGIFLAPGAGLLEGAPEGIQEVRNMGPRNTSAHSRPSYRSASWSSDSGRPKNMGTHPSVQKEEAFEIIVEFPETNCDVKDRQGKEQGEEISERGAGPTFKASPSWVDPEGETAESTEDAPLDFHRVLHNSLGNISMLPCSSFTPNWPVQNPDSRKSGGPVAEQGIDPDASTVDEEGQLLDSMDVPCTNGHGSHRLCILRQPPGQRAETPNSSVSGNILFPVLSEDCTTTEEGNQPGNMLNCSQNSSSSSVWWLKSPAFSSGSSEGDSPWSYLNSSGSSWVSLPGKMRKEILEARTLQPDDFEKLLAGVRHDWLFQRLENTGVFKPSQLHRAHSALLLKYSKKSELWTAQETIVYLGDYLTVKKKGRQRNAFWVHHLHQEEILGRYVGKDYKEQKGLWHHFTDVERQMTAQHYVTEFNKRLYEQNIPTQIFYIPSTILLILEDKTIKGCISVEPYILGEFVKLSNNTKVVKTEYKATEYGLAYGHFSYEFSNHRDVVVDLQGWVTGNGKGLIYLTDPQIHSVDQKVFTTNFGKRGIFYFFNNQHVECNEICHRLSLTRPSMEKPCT

For the compound `COc1ccc(C(C)(C)c2csc(NC(=O)NCc3ccc(N4CCNCC4)cc3)n2)cc1` [Example A053, 1-(4-(2-(4-methoxyphenyl)propan-2-yl)thiazol-2-yl)-3-(4-(piperazin-1-yl)benzyl)urea], the IC50 in experiment [1] came out at 760 nM; against ALPK1 it was 43 nM.

Turning to `O=C(NCc1ccc(N2CCNCC2)cc1)Nc1nc(C2(c3ccc(Br)cc3)CCCC2)cs1` [Example A045, 1-(4-(1-(4-bromophenyl)cyclopentyl)thiazol-2-yl)-3-(4-(piperazin-1-yl)benzyl)urea], the IC50 in experiment [1] came out at 1070 nM; against ALPK1, 24 nM.

On to `COc1ccc(C(C)(C)c2csc(NC(=O)NCc3ccc(C4CCNCC4)c(F)c3)n2)cc1` [Example A224, 1-(3-fluoro-4-(piperidin-4-yl)benzyl)-3-(4-(2-(4-methoxyphenyl)propan-2-yl)thiazol-2-yl)urea], for which the IC50 in experiment [1] worked out at 730 nM; on ALPK1, 21 nM.

With `CC(C)(c1ccc(Br)cc1)c1csc(NC(=O)NCc2ccc(N3CCNCC3)c(C(N)=O)c2)n1` [Example A052, 5-((3-(4-(2-(4-bromophenyl)propan-2-yl)thiazol-2-yl)ureido)methyl)-2-(piperazin-1-yl)benzamide], the IC50 is 1960 nM in experiment [1] and 24 nM against ALPK1.

For the compound `C#C[C@](C)(c1ccc(OC)cc1)c1csc(NC(=O)NCCO)n1` [Example A169, (R)-1-(2-hydroxyethyl)-3-(4-(2-(4-methoxyphenyl)but-3-yn-2-yl)thiazol-2-yl)urea], the results for the IC50 (in experiment [1]; on ALPK1) were 1670 nM and 23 nM, respectively.

Regarding `COc1ccc(C(C)(C)c2csc(NC(=O)NC3(c4ccc(N5CCNCC5)cc4)CC3)n2)cc1` [Example A240, 1-(4-(2-(4-methoxyphenyl)propan-2-yl)thiazol-2-yl)-3-(1-(4-(piperazin-1-yl)phenyl)cyclopropyl)u-rea], the IC50 in experiment [1] worked out at 1880 nM; against ALPK1, 97 nM.

Take `CC(C)(c1ccc(I)cc1)c1csc(NC(=O)NCc2ccc(N3CCNCC3)cc2)n1` [Example A067, 1-(4-(2-(4-iodophenyl)propan-2-yl)thiazol-2-yl)-3-(4-(piperazin-1-yl)benzyl)urea]: the values for the IC50 (in experiment [1]; against ALPK1) were 1110 nM and 28 nM, respectively.

Regarding `CC(C)(c1ccc(Br)cc1)c1csc(NC(=O)NCc2ccc(OCC(=O)N3CCNCC3)cc2)n1` [Example A033, 1-(4-(2-(4-bromophenyl)propan-2-yl)thiazol-2-yl)-3-(4-(2-oxo-2-(piperazin-1-yl)ethoxy)benzyl)urea], the IC50 in experiment [1] was 3190 nM; against ALPK1 it was 80 nM.

On to `COc1ccc(C(C)(C)c2csc(NC(=O)NCc3ccc(N4CCC(O)CC4)cc3)n2)cc1` [Example A139, 1-(4-(4-hydroxypiperidin-1-yl)benzyl)-3-(4-(2-(4-methoxyphenyl)propan-2-yl)thiazol-2-yl)urea], for which the IC50 amounted to 1350 nM in experiment [1] and 261 nM against ALPK1.

Take `CCNC(=O)Nc1nc(C(C)(C)c2ccc(OC)cc2)cs1` [Example A242, 1-ethyl-3-(4-(2-(4-methoxyphenyl)propan-2-yl)thiazol-2-yl)urea]: the IC50 in experiment [1] worked out at 980 nM; against ALPK1, 42 nM.

For `Cc1cc(N2CCNCC2)ccc1CNC(=O)Nc1nc(C(C)(C)c2ccc(Br)cc2)cs1` [Example A051, 1-(4-(2-(4-bromophenyl)propan-2-yl)thiazol-2-yl)-3-(2-methyl-4-(piperazin-1-yl)benzyl)urea], the IC50 in experiment [1] is 290 nM; on ALPK1 it was 125 nM.

Consider `COc1ccc(C(C)(C)c2csc(NC(=O)NCc3ccc(C(=O)NCCN)nc3)n2)cc1` [Example A203, N-(2-aminoethyl)-5-((3-(4-(2-(4-methoxyphenyl)propan-2-yl)thiazol-2-yl)ureido)methyl)picolin-amide], for which the IC50 in experiment [1] is 5700 nM; on ALPK1, 94 nM.

With `COc1ccc(C(C)(C)c2csc(NC(=O)NC(C)c3cc(F)c(N4CCNCC4)cc3F)n2)cc1` (stereo not shown) [Example A002, 1-(1-(2,5-difluoro-4-(piperazin-1-yl)phenyl)ethyl)-3-(4-(2-(4-methoxyphenyl)propan-2-yl)thiazol-2-yl)urea], the figures for the IC50 (in experiment [1]; on ALPK1) were 700 nM and 63 nM, respectively.

`COc1ccc(C(C)(C)c2csc(NC(=O)NCCF)n2)cc1` [Example A021, 1-(2-fluoroethyl)-3-(4-(2-(4-methoxyphenyl)propan-2-yl)thiazol-2-yl)urea]: the IC50 in experiment [1] amounted to 1390 nM; on ALPK1 it was 104 nM.

Consider `C#C[C@](C)(c1ccc(F)cc1)c1csc(NC(=O)NCCS(N)(=O)=O)n1` [Example A284, 2-(3-(4-(2-(4-fluorophenyl)but-3-yn-2-yl)thiazol-2-yl)ureido)ethanesulfona-mide], for which the IC50 is 2600 nM in experiment [1] and 666 nM against ALPK1.

Regarding `C#CC(C)(c1ccc(Br)cc1)c1csc(NC(N)=O)n1` (stereo in doubt) [Example A164, (R)-1-(4-(2-(4-bromophenyl)but-3-yn-2-yl)thiazol-2-yl)urea], the IC50 in experiment [1] came out at 590 nM; on ALPK1 it was 17 nM.

`COc1ccc(C(C)(C)c2csc(NC(=O)NCc3ccc(N4CC5CC4CN5)cc3)n2)cc1` (stereo not shown) [Example A062, 1-(4-(2,5-diazabicyclo[2.2.1]heptan-2-yl)benzyl)-3-(4-(2-(4-methoxyphenyl)propan-2-yl)thiazol-2-yl)urea]: the IC50 amounted to 1330 nM in experiment [1] and 60 nM on ALPK1.

As to `COc1ccc(C(C)(C)c2csc(NC(=O)NCCCS(=O)(=O)N3CCNCC3)n2)cc1` [Example A230, 1-(4-(2-(4-methoxyphenyl)propan-2-yl)thiazol-2-yl)-3-(3-(piperazin-1-ylsulfonyl)propyl)urea], the IC50 in experiment [1] is 3010 nM; against ALPK1 it was 127 nM.

Turning to `CC(NC(=O)Nc1nc(C(C)(C)c2ccc(Br)cc2)cs1)c1cc(F)c(N2CCNCC2)c(F)c1` (stereo not shown) [Example A003, 1-(4-(2-(4-bromophenyl)propan-2-yl)thiazol-2-yl)-3-(1-(3,5-difluoro-4-(piperazin-1-yl)phenyl)ethyl)urea], the IC50 is 1200 nM in experiment [1] and 45 nM at ALPK1.

Turning to `COc1ccc(C(C)(C)c2csc(NC(=O)NCc3cc(F)c(N4CCNCC4)cc3F)n2)cc1` [Example A231, 1-(2,5-difluoro-4-(piperazin-1-yl)benzyl)-3-(4-(2-(4-methoxyphenyl)propan-2-yl)thiazol-2-yl)urea hydrochloride], the IC50 in experiment [1] was found to be 3360 nM; against ALPK1, 27 nM.

With `COc1ccc(C(C)(C)c2csc(NC(=O)NCCCO)n2)cc1` [Example A133, 1-(3-hydroxypropyl)-3-(4-(2-(4-methoxyphenyl)propan-2-yl)thiazol-2-yl)urea], the figures for the half-maximal inhibitory concentration (IC50) (in experiment [1]; at ALPK1) were 600 nM and 57 nM, respectively.

With `C#C[C@](C)(c1ccc(Cl)cc1)c1csc(NC(=O)NC2(CO)CC2)n1` [Example A296], the IC50 is 4790 nM in experiment [1] and 114 nM on ALPK1.

Consider `C#C[C@@](C)(c1ccc(Cl)cc1)c1csc(NC(=O)NC(C)(C)CO)n1` (stereo in doubt) [Example A294, 1-(4-(2-(4-chlorophenyl)but-3-yn-2-yl)thiazol-2-yl)-3-(1-hydroxy-2-methylpropan-2-yl)urea], for which the IC50 in experiment [1] was found to be 3040 nM; at ALPK1, 285 nM.

Consider `COc1ccc(C(C)(C)c2csc(NC(=O)NCCCN(C)C)n2)cc1` [Example A145, 1-(3-(dimethylamino)propyl)-3-(4-(2-(4-methoxyphenyl)propan-2-yl)thiazol-2-yl)urea], for which the IC50 amounted to 4490 nM in experiment [1] and 216 nM against ALPK1.

For `C#CC(C)(c1ccc(Cl)cc1)c1csc(NC(=O)NCCS(N)(=O)=O)n1` (stereo not shown) [Example A243, 2-(3-(4-(2-(4-chlorophenyl)but-3-yn-2-yl)thiazol-2-yl)ureido)ethane-1-sulfonamide], the IC50 in experiment [1] was determined as 590 nM; at ALPK1 it was 23 nM.

For `C#CC(C)(c1ccc(Cl)cc1)c1csc(NC(=O)NCC(C)(C)O)n1` (stereo not shown) [Example A268, 1-(4-(2-(4-chlorophenyl)but-3-yn-2-yl)thiazol-2-yl)-3-(2-hydroxy-2-methylpropyl)urea], the IC50 in experiment [1] amounted to 1310 nM; against ALPK1, 218 nM.

With `CC1CN(c2ccc(CNC(=O)Nc3nc(C(C)(C)c4ccc(Br)cc4)cs3)cc2)CC(C)N1` (stereo not shown) [Example A213, 1-(4-(2-(4-bromophenyl)propan-2-yl)thiazol-2-yl)-3-(4-(3,5-dimethylpiperazin-1-yl)benzyl)urea], the IC50 in experiment [1] came to 6380 nM; against ALPK1, 9 nM.

As for `C#C[C@](C)(c1ccc(Cl)cc1)c1csc(NC(=O)N2CC(c3ccc(N4CCNCC4)c(F)c3)C2)n1` [Example A246, (R)-N-(4-(2-(4-chlorophenyl)but-3-yn-2-yl)thiazol-2-yl)-3-(3-fluoro-4-(piperazin-1-yl)phenyl)azetidine-1-carboxamide], the IC50 in experiment [1] amounted to 1590 nM; at ALPK1, 29 nM.

Consider `CC(C)(c1ccc(Br)cc1)c1csc(NC(=O)NCc2ccc(N3CCNCC3)cc2Cl)n1` [Example A048, 1-(4-(2-(4-bromophenyl)propan-2-yl)thiazol-2-yl)-3-(2-chloro-4-(piperazin-1-yl)benzyl)urea], for which the IC50 in experiment [1] stood at 1530 nM; against ALPK1 it was 138 nM.

Usually IC50 stands for the concentration that gives 50% inhibition.
